Results: patent publication US11530210B2, “Substituted heteroaromatic pyrazolo-pyridines and their use as GLUN2B receptor modulators” (JANSSEN PHARMACEUTICA NV, priority 2019, dated 2022)

Biological target: T1, human GluN1/GluN2B NMDA receptors (Homo sapiens, UniProt Q13224)
T1 construct: expressed in transfected cells
Experiment: Calcium flux (FLIPR) assay on cloned human NR1/GluN2B ion channels expressed in mammalian cells (standard and HTS variants)
Type: cell-based
Conditions: cells expressing human GluN1/GluN2B, glutamate and glycine co-agonists
Protocol: Effects of Test Articles on Cloned Human NR1/GuN2B Ion Channels Expressed in Mammalian Cells
NMDA receptors are ion channels that are highly permeable to Ca^2+ ions, rendering it possible to monitor NMDA receptor function using cell-based calcium flux assay. In this assay, co-agonists glutamate and glycine are added to cells heterologously expressing human GluN1/GluN2B NMDA receptors to initiate cellular Ca^2+ influx. The time course of the changes in intracellular calcium is measured using a fluorescent dye and a FLIPR (Fluorometric Imaging Plate Reader) device.
Twenty-four hours before measurements, the expression of the NMDA receptors in the stable cell line is induced with Tet-On inducible system in the presence of a non-selective NMDA receptor blocker. On the day of the experiment, cell culture media is carefully washed, and the cells are loaded with Calcium 5 Dye Kit (Molecular Devices) in dye loading buffer containing 137 mM NaCl, 4 mM KCl, 2 mM CaCl2, 0.5 mM MgCl2 (standard assay) or 1.5 mM MgCl2 (HTS assay), 10 mM HEPES and 5 mM D-glucose; pH 7.4. After 1 h incubation at the room temperature, the dye is washed away with the assay buffer (137 mM NaCl (standard assay) or 150 mM (HTS assay), 4 mM KCl (standard assay) or 3 mM (HTS assay), 2 mM CaCl2), 0.01 mM EDTA, 10 mM HEPES and 5 mM D-glucose; pH 7.4) In the FLIPR TETRA reader, various concentrations of the test compounds are added to the cells for 5 min while fluorescence is monitored to detect potential agonist activity. Next, co-agonists, glutamate and glycine are added for another 5 minutes. The concentration of glutamate corresponding to ˜EC40 (standard assay) or EC40 (HTS assay) is used to maximize the assay's signal window and ability to detect NMDA receptor antagonists and negative allosteric modulators. A saturating concentration (10 μM) of glycine is also present in the assay. A non-selective NMDA receptor antagonist, (+)MK-801 is used as a positive control for antagonist activity. The fluorescent signal in the presence of test compounds is quantified and normalized to the signal defined by the appropriate control wells.

T1 sequence (Q13224 27-1484, other chains not shown): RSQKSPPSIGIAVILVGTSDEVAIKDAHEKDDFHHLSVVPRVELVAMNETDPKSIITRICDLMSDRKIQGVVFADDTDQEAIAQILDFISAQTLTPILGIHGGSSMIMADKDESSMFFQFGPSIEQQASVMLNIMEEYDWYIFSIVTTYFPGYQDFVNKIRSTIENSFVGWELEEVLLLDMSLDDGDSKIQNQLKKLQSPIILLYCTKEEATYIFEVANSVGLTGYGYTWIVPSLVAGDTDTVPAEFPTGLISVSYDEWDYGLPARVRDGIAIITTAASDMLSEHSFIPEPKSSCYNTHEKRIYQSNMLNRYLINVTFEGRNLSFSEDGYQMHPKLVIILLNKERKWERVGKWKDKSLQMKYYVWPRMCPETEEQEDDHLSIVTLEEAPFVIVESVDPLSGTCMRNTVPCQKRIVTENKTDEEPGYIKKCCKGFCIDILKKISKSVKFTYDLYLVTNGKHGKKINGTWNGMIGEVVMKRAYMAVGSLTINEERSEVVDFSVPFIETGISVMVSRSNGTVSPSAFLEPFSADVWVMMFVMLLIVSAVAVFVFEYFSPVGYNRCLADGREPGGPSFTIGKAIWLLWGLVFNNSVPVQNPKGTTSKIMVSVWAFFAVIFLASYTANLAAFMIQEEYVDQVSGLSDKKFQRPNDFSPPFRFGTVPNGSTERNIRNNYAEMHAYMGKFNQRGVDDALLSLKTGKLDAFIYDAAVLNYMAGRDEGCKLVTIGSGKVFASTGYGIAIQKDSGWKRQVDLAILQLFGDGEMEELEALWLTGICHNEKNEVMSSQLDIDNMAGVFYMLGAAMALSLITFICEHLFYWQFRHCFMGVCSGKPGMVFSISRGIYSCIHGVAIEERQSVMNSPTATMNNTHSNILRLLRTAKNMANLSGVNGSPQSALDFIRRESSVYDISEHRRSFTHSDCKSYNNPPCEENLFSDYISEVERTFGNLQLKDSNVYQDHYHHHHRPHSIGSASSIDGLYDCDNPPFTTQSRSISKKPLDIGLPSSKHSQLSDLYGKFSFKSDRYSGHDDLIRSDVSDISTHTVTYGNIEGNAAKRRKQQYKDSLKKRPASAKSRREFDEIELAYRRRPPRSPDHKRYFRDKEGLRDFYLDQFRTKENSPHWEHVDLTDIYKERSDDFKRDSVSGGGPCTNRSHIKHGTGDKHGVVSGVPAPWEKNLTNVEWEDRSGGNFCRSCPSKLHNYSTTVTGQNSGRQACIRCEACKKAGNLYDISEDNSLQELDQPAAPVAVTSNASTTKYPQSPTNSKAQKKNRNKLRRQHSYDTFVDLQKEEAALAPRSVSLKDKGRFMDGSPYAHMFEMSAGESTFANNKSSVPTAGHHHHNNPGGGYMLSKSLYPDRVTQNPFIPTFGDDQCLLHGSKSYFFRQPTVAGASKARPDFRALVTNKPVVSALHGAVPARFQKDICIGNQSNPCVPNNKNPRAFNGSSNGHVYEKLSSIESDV

| IC50 [nM] | SMILES |
| --- | --- |
| 139 | Cc1nnc(Cn2ncc3ncc(-c4ccc(F)c(C(F)F)c4)cc32)n1C [Example 75, 6-[3-(Difluoromethyl)-4-fluoro-phenyl]-1-[(4,5-dimethyl-1,2,4-triazol-3-yl)methyl]pyrazolo[4,3-b]pyridine] |
| 3830 | CCc1nnc(Cn2ncc3ncc(-c4ccc(F)c(C(F)F)c4)cc32)n1C [Example 76, 6-[3-(Difluoromethyl)-4-fluoro-phenyl]-1-[(5-ethyl-4-methyl-1,2,4-triazol-3-yl)methyl]pyrazolo[4,3-b]pyridine] |
| 89 | Cc1nnc(Cn2ncc3ncc(-c4ccc(Cl)s4)cc32)o1 [Example 77, 2-[[6-(5-Chloro-2-thienyl)pyrazolo[4,3-b]pyridin-1-yl]methyl]-5-methyl-1,3,4-oxadiazole] |
| 143 | Cc1nnc(Cn2ncc3ncc(-c4ccc(C(F)(F)F)s4)cc32)o1 [Example 78, 2-Methyl-5-[[6-[5-(trifluoromethyl)-2-thienyl]pyrazolo[4,3-b]pyridin-1-yl]methyl]-1,3,4-oxadiazole] |
| 153 | Cc1nnc(Cn2ncc3ncc(-c4ccc(C(F)F)s4)cc32)o1 [Example 79, 2-[[6-[5-(Difluoromethyl)-2-thienyl]pyrazolo[4,3-b]pyridin-1-yl]methyl]-5-methyl-1,3,4-oxadiazole] |
| 957 | Cc1noc(Cn2ncc3ncc(-c4ccc(F)cc4)cc32)n1 [Example 80, 5-[[6-(4-Fluorophenyl)pyrazolo[4,3-b]pyridin-1-yl]methyl]-3-methyl-1,2,4-oxadiazole] |
| 2310 | COc1cccc(-c2cnc3cnn(Cc4nc(C)no4)c3c2)c1 [Example 81, 5-[[6-(3-Methoxyphenyl)pyrazolo[4,3-b]pyridin-1-yl]methyl]-3-methyl-1,2,4-oxadiazole] |
| 160 | Cc1nnc(Cn2ncc3ncc(-c4cccc(C(C)(F)F)c4)cc32)o1 [Example 82, 2-[[6-[3-(1,1-Difluoroethyl)phenyl]pyrazolo[4,3-b]pyridin-1-yl]methyl]-5-methyl-1,3,4-oxadiazole] |
| 126 | Cc1nnc(Cn2nc(F)c3ncc(-c4cccc(C(C)(F)F)c4)cc32)o1 [Example 83, 2-[[6-[3-(1,1-Difluoroethyl)phenyl]-3-fluoro-pyrazolo[4,3-b]pyridin-1-yl]methyl]-5-methyl-1,3,4-oxadiazole] |
| 293 | Cc1noc(Cn2ncc3ncc(-c4cccc(C(F)(F)F)c4)cc32)n1 [Example 84, 3-Methyl-5-[[6-[3-(trifluoromethyl)phenyl]pyrazolo[4,3-b]pyridin-1-yl]methyl]-1,2,4-oxadiazole] |
| 143 | Cc1nnc(Cn2ncc3ncc(-c4cccc(C(F)(F)F)c4)cc32)o1 [Example 85, 2-Methyl-5-[[6-[3-(trifluoromethyl)phenyl]pyrazolo[4,3-b]pyridin-1-yl]methyl]-1,3,4-oxadiazole] |
| 202 | Cc1nc(Cn2ncc3ncc(-c4cccc(C(F)(F)F)c4)cc32)no1 [Example 86, 5-Methyl-3-[[6-[3-(trifluoromethyl)phenyl]pyrazolo[4,3-b]pyridin-1-yl]methyl]-1,2,4-oxadiazole] |
| 383 | FC(F)(F)c1cccc(-c2cnc3cnn(Cc4ncno4)c3c2)c1 [Example 87, 5-[[6-[3-(Trifluoromethyl)phenyl]pyrazolo[4,3-b]pyridin-1-yl]methyl]-1,2,4-oxadiazole] |
| 467 | Cc1nnc(Cn2ncc3ncc(-c4ccnc(C(F)(F)F)c4)cc32)o1 [Example 88, 2-Methyl-5-[[6-[2-(trifluoromethyl)-4-pyridyl]pyrazolo[4,3-b]pyridin-1-yl]methyl]-1,3,4-oxadiazole] |
| 37 | Cc1nnc(Cn2ncc3ncc(-c4ccc(F)c(C)c4)cc32)o1 [Example 89, 2-[[6-(4-Fluoro-3-methyl-phenyl)pyrazolo[4,3-b]pyridin-1-yl]methyl]-5-methyl-1,3,4-oxadiazole] |
| 33 | Cc1nnc(Cn2nc(F)c3ncc(-c4ccc(F)c(C)c4)cc32)o1 [Example 90, 2-[[3-Fluoro-6-(4-fluoro-3-methyl-phenyl)pyrazolo[4,3-b]pyridin-1-yl]methyl]-5-methyl-1,3,4-oxadiazole] |

| IC50 [nM] | SMILES |
| --- | --- |
| 145 | Cc1cc(-c2cnc3cnn(Cc4nnc(C(F)(F)F)o4)c3c2)ccc1F [Example 91, 2-[[6-(4-Fluoro-3-methyl-phenyl)pyrazolo[4,3-b]pyridin-1-yl]methyl]-5-(trifluoromethyl)-1,3,4-oxadiazole] |
| 90 | Cc1nnc(Cn2ncc3ncc(-c4ccc(F)c(Cl)c4)cc32)o1 [Example 92, 2-[[6-(3-Chloro-4-fluoro-phenyl)pyrazolo[4,3-b]pyridin-1-yl]methyl]-5-methyl-1,3,4-oxadiazole] |
| 87 | Cc1nnc(Cn2nc(F)c3ncc(-c4ccc(F)c(Cl)c4)cc32)o1 [Example 93, 2-[[6-(3-Chloro-4-fluoro-phenyl)-3-fluoro-pyrazolo[4,3-b]pyridin-1-yl]methyl]-5-methyl-1,3,4-oxadiazole] |
| 58 | Fc1ccc(-c2cnc3cnn(Cc4nnco4)c3c2)cc1C(F)F [Example 94, 2-[[6-[3-(Difluoromethyl)-4-fluoro-phenyl]pyrazolo[4,3-b]pyridin-1-yl]methyl]-1,3,4-oxadiazole] |
| 40 | Cc1noc(Cn2ncc3ncc(-c4ccc(F)c(C(F)F)c4)cc32)n1 [Example 95, 5-[[6-[3-(Difluoromethyl)-4-fluoro-phenyl]pyrazolo[4,3-b]pyridin-1-yl]methyl]-3-methyl-1,2,4-oxadiazole] |
| 34 | Cc1nonc1Cn1ncc2ncc(-c3ccc(F)c(C(F)F)c3)cc21 [Example 98, 3-[[6-[3-(Difluoromethyl)-4-fluoro-phenyl]pyrazolo[4,3-b]pyridin-1-yl]methyl]-4-methyl-1,2,5-oxadiazole] |
| 70 | Fc1ccc(-c2cnc3cnn(Cc4nnc(C5CC5)o4)c3c2)cc1C(F)F [Example 99, 2-Cyclopropyl-5-[[6-[3-(difluoromethyl)-4-fluoro-phenyl]pyrazolo[4,3-b]pyridin-1-yl]methyl]-1,3,4-oxadiazole] |
| 550 | CC(C)c1nnc(Cn2ncc3ncc(-c4ccc(F)c(C(F)F)c4)cc32)o1 [Example 100, 2-[[6-[3-(Difluoromethyl)-4-fluoro-phenyl]pyrazolo[4,3-b]pyridin-1-yl]methyl]-5-isopropyl-1,3,4-oxadiazole] |
| > 2990 | CN(C)c1nnc(Cn2ncc3ncc(-c4ccc(F)c(C(F)F)c4)cc32)o1 [Example 101, 5-[[6-[3-(Difluoromethyl)-4-fluoro-phenyl]pyrazolo[4,3-b]pyridin-1-yl]methyl]-N,N-dimethyl-1,3,4-oxadiazol-2-amine] |
| 49 | Fc1ccc(-c2cnc3cnn(Cc4nnc(C(F)(F)F)o4)c3c2)cc1C(F)F [Example 102, 2-[[6-[3-(Difluoromethyl)-4-fluoro-phenyl]pyrazolo[4,3-b]pyridin-1-yl]methyl]-5-(trifluoromethyl)-1,3,4-oxadiazole] |
| > 2990 | Fc1ccc(-c2cnc3cnn(Cc4nnc(-c5ccccc5)o4)c3c2)cc1C(F)F [Example 103, 2-[[6-[3-(Difluoromethyl)-4-fluoro-phenyl]pyrazolo[4,3-b]pyridin-1-yl]methyl]-5-phenyl-1,3,4-oxadiazole] |
| 244 | Cc1nnc(Cn2ncc3ncc(-c4ccc(F)c(C(C)(F)F)c4)cc32)o1 [Example 104, 2-[[6-[3-(1,1-Difluoroethyl)-4-fluoro-phenyl]pyrazolo[4,3-b]pyridin-1-yl]methyl]-5-methyl-1,3,4-oxadiazole] |
| 367 | Cc1nnc(Cn2nc(F)c3ncc(-c4ccc(F)c(C(C)(F)F)c4)cc32)o1 [Example 105, 2-[[6-[3-(1,1-Difluoroethyl)-4-fluoro-phenyl]-3-fluoro-pyrazolo[4,3-b]pyridin-1-yl]methyl]-5-methyl-1,3,4-oxadiazole] |
| 115 | Cc1nnc(Cn2ncc3ncc(-c4ccc(Cl)c(C(F)F)c4)cc32)o1 [Example 106, 2-[[6-[4-Chloro-3-(difluoromethyl)phenyl]pyrazolo[4,3-b]pyridin-1-yl]methyl]-5-methyl-1,3,4-oxadiazole] |
| 347 | Cc1nnc(Cn2nc(F)c3ncc(-c4ccc(Cl)c(C(F)F)c4)cc32)o1 [Example 107, 2-[[6-[4-Chloro-3-(difluoromethyl)phenyl]-3-fluoro-pyrazolo[4,3-b]pyridin-1-yl]methyl]-5-methyl-1,3,4-oxadiazole] |
| 815 | Cc1noc(Cn2ncc3ncc(-c4cc(F)cc(C(F)(F)F)c4)cc32)n1 [Example 108, 5-[[6-[3-Fluoro-5-(trifluoromethyl)phenyl]pyrazolo[4,3-b]pyridin-1-yl]methyl]-3-methyl-1,2,4-oxadiazole] |
